Data as given in US12178885B2, “Method for mediating targeted delivery of a composition to the brain of a subject in need thereof” (Fudan University, priority 2018, dated 2024).
Peptide text beside a SMILES is read from it.

Assays:
[1] = test system: orthotopic U87 glioma; assay: anti-glioma efficacy: median survival time of orthotopic tumor model mice; type: in vivo, nude mice; conditions: tail vein, adriamycin 2 mg/kg per injection, days 7, 9, 11, 13, 15; saline group 27 days
Description: By injecting SP modified delivery system, unmodified polypeptide delivery system, free drug and normal saline into nude mice bearing orthotopic U87 glioma model via tail vein, the anti-tumor effect of SP modified delivery system in vivo is evaluated with the median survival time, apoptosis of tumor tissue and neovascularization density as indicators.
Establishment of glioma model in nude mice: Took U87 cells in logarithmic growth phase, digested and counted the cells, suspended them with appropriate amount of PBS buffer, inoculated 6×10^5 cells (dispersed in 5 μL PBS buffer) to each nude mouse. The nude mice was anesthetized with 7% chloral hydrate before the experiment, fixed with a brain stereotactic instrument, and inoculated the suspended cells to the striatum (i.e. 0.6 mm forward, 1.8 mm to the right, and 3 mm deep of the anterior fontanelle). Regularly observed the state of nude mice after operation.
Nude mice with orthotopic brain tumor model were randomly divided into 4 groups (n=13), and their body weight was recorded on the 7th, 9th, 11th, 13th and 15th day, respectively.

[2] = test system: neural cell line PC12; conditions: gradient concentration of SP co-cultured with PC12
Source text: Safety evaluation: The gradient concentration of SP was co-cultured with nerve cell line PC12 to evaluate its cytotoxicity in vitro. At the same time, the heart, liver, spleen, lung and kidney tissues of mice in the pharmacodynamic test of orthotopic tumor were dissected and fixed in PBS solution of 4% paraformaldehyde, paraffin-embedded sections were made, stained with HE, observed and photographed under a microscope. the experimental results are shown in FIG. 10.

[3] = test system: SP antibody; assay: competition ELISA for binding of SP antibody to SP fixed on 96-well plate; conditions: without plasma incubation
Description: The specific operation was as follows: 0.1 μg SP-PEG-DSPE was added to each well of ELISA plate, left overnight at room temperature, washed with PBS for 3 times, sealed with 3% BSA for 1 h, and the BSA solution was sucked off Added SP antibody, incubated at 37° C. for 1 h, washed with PBS for three times, added liposome incubated with serum or PBS in advance and diluted in gradient, incubated at 37° C. for 1 h, washed with PBS for three times, added corresponding horseradish peroxidase labeled secondary antibody, reacted with TMB chromogenic solution for 3-15 min after 1 h, stopped the reaction with 2 M H2SO4, and measured its absorbance value at 450 nm wavelength.

COc1cccc2c1C(=O)c1c(O)c3c(c(O)c1C2=O)C[C@@](O)(C(=O)CO)C[C@@H]3O[C@H]1C[C@H](N)[C@H](O)[C@H](C)O1 [DOX, adriamycin]
median survival time [1]: 31 days

CC[C@H](C)[C@H](NC(=O)[C@H](C)NC(=O)CNC(=O)[C@H](CCCCN)NC(=O)[C@H](CC(N)=O)NC(=O)[C@H](CO)NC(=O)CN)C(=O)N[C@H](C(=O)NCC(=O)N[C@@H](CC(C)C)C(=O)N[C@@H](CCSC)C(N)=O)[C@@H](C)CC [SP] (H-GSNKGAIIGLM-NH2)
cytotoxicity [2]: did not show cytotoxicity | competition for interaction between SP and antibody [3]: can compete for the interaction between SP and antibody
